Measurements from BindingDB's records for doi:10.1021/jm900414x (University of Dundee, 2009).

Target: T1, Pteridine reductase (Trypanosoma brucei brucei, UniProt O76290)
T1 sequence (O76290 whole entry): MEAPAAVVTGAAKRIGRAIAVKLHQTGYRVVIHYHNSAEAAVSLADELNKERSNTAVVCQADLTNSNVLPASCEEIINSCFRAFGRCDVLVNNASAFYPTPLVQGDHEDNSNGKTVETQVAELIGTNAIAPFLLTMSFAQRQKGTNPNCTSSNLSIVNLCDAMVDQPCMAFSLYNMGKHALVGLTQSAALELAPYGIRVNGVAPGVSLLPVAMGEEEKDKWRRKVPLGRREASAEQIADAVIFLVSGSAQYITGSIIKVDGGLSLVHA
Assay: PTR1 Activity Assay
Conditions: pH 6; 23 °C
Experimental: TbPTR1 activity was measured in 96-well microtiter plates via reduction of cytochrome c (cytc) as a result of the enzymatic production of tetrahydrobiopterin (H4B). Enzyme activity was monitored by reading absorbance at 550 nm within the linear phase of reaction. Ki (app) values were calculated using a modified Morrison equation.

## CCn1c(N)nc2ccccc21 [2-aminobenzimidazole deriv., 7]
  Ki: > 200 µM
